Results reported in US5219825A, “Synergistic herbicidal compositions comprising herbicides which generate toxic oxygen radicals and chelating agents which inhibit their detoxification” (Yeda Research and Development Co., Ltd., priority 1986, dated 1993).

Experiments:
weed species = details: cited from earlier work
Sinapsis arvense = assay: Whole plant spray, visual rating; type: in vivo; details: paraquat 30 μM spray to run-off, DDC 0.75% W/V where added, scored 1 day after treatment
From the text: (§1) Seeds of Conyza bonariensis were germinated and plants cultivated as outlined in Example 1. Other species were germinated in a similar mixture and treated at 10 days.
(§2) ^a visual ratings (scored 1 day after treatment): 0 no damage to
(§3) slight burn; 1 moderate burn (may regenerate); 2 severe burn (will die)

Stellaria media = assay: Whole plant spray, visual rating; type: in vivo; details: paraquat 30 μM spray to run-off, DDC 0.75% W/V where added, scored 1 day after treatment
From the text: as §1, §2, §3

In the case of `C[n+]1ccc(-c2cc[n+](C)cc2)cc1` [paraquat, 1,1'-dimethyl-4-4'bipyridium ion], the “rate at which species are killed” value (weed species; Bromis inermis, Amaranthus retroflexus and wheat) is listed as 0.01 kg/ha, the “rate required for good control” value (weed species; Digitaria, Chenopodium album, Sinapis arvensis and Galium aparine) is listed as 3 kg/ha and the visual rating (Sinapsis arvense) is listed as 0.5. The visual rating (Stellaria media) was 0.5.
